# Results as given in US20050065068A1, “Methods and compositions for reducing serum phosphate levels” (priority 1999, published 2005).
# Non-standard residues stand in square brackets, D forms with d. Residues, ends and D or L forms follow the SMILES beside them. No end group written: not given here. pS = N[C@@H](COP(=O)(O)O)C(=O)O
# Experiments:
# [1] = tested on: ovariectomized female Sprague Dawley rats; assay: Serum and urine chemistry in the ovariectomized rat osteoporosis model; assay type: in vivo; conditions: OVX rats; for Urine Ca^2+ / Serum AP (serum alkaline phosphatase) / Serum Ca^2+ / Serum Pi (serum inorganic phosphate): 200-208 μg/kg peptide oral daily for 84 days; for Serum AP (serum alkaline phosphatase) / Serum Ca^2+ / Serum Pi (serum inorganic phosphate): terminal sample Day 84
# Text: Ovariectomized rats were chosen for the efficacy study of a series of peptides. After a six (6) day quarantine/acclimation period, forty (40) ovariectomized female Sprague Dawley outbred (Crl:CD®IGS BR) rats were randomly allocated into five experimental groups of eight animals each. A sixth group was composed of eight sham-operated Sprague Dawley rats. The experimental design consisted of four test-article groups and two vehicle control groups (one ovariectomized and one sham-operated). Each rat received a single daily oral dose for 84 days of either 0.9% Sodium Chloride for Injection (controls) or 200-208 μg/kg of peptide as specified in Table 1. Doses were based upon a target dose of 50 μg/animal/day and group mean body weights determined at study initiation (Day 0). “Sham” indicates sham-operated rats; and “OVX” indicates ovariectomized rats. The dose range of 200-208 μg/kg/day employed in the study represents the target dose (50 μg/animal/day) in animals weighing […] at study initiation. The test samples for groups 1, 2, 3, and 4 were dissolved in 0.9% Sodium Chloride for injection and administered at once. All dosing was accomplished by oral gavage (dose volume 1.0-1.5 mL, adjusted weekly for bodyweight gain). Certified Rodent Diet #5002 (Purina Mills, Inc., St. Louis, Mo.) was provided during the quarantine/acclimation period and throughout the study. Clinical signs were observed once daily throughout the quarantine/acclimation and treatment periods. Individual body weights were recorded at the initiation of the dosing, once weekly throughout the treatment phase, and at necropsy. Animals were sacrificed approximately 24 hours after the administration of the final dose (Day 84). Terminal whole blood samples were collected from each animal for serum chemistry (i.e. measurement of serum calcium and phosphorus) evaluations via terminal cardiocentesis. Femurs were submitted for post-mortem bone mechanical strength and composition analysis.
# [2] = tested on: ovariectomized female Sprague Dawley rats; assay: Three-point bending mechanical strength test of the femur in the ovariectomized rat osteoporosis model; assay type: in vivo; conditions: right femur, Day 84, vs. Group 5
# Text: Ovariectomized rats were chosen for the efficacy study of a series of peptides. After a six (6) day quarantine/acclimation period, forty (40) ovariectomized female Sprague Dawley outbred (Crl:CD®IGS BR) rats were randomly allocated into five experimental groups of eight animals each. A sixth group was composed of eight sham-operated Sprague Dawley rats. The experimental design consisted of four test-article groups and two vehicle control groups (one ovariectomized and one sham-operated). Each rat received a single daily oral dose for 84 days of either 0.9% Sodium Chloride for Injection (controls) or 200-208 μg/kg of peptide as specified in Table 1. Doses were based upon a target dose of 50 μg/animal/day and group mean body weights determined at study initiation (Day 0). “Sham” indicates sham-operated rats; and “OVX” indicates ovariectomized rats. The dose range of 200-208 μg/kg/day employed in the study represents the target dose (50 μg/animal/day) in animals weighing […] at study initiation. The test samples for groups 1, 2, 3, and 4 were dissolved in 0.9% Sodium Chloride for injection and administered at once. All dosing was accomplished by oral gavage (dose volume 1.0-1.5 mL, adjusted weekly for bodyweight gain). Certified Rodent Diet #5002 (Purina Mills, Inc., St. Louis, Mo.) was provided during the quarantine/acclimation period and throughout the study. Clinical signs were observed once daily throughout the quarantine/acclimation and treatment periods. Individual body weights were recorded at the initiation of the dosing, once weekly throughout the treatment phase, and at necropsy. Animals were sacrificed approximately 24 hours after the administration of the final dose (Day 84). Terminal whole blood samples were collected from each animal for serum chemistry (i.e. measurement of serum calcium and phosphorus) evaluations via terminal cardiocentesis. Femurs were submitted for post-mortem bone mechanical strength and composition analysis. The right femur of each animal was reserved for bone mechanical strength evaluation (i.e. three-point bending analysis). Femurs were placed on an apparatus in which two isolated points of the long bone were supported. Weight load was applied at the center of two supporting points toward the direction in which the bone is bent. […] Femurs were positioned with the anterior side toward the center load, and the posterior side toward the two supports. The loading was done in an Instron Model #1122 materials testing machine (Canton, Mass.). Testing was conducted with a displacement of 2.0 mm/minute. Load and displacement were recorded at 0.002 mm displacement intervals. Experiments were controlled using a computer-based data acquisition system running ASYST Scientific Software (Keithley-Metrabyte; Taunton, Mass.). The following data were generated: Maximum Load (in Newton, N); Initial Stiffness (in N/mm); Energy at Maximum (in Nmm) The value of the load was plotted against the deflection generating the load-deflection curve. Two points in the initial linear portion of the load-deflection curve were chosen by the operator at the time of testing. A line was constructed through the chosen points, the slope of which is the initial stiffness. The maximum load is the largest value of the load recorded during the flexural test. The energy at maximum is the area under the load-deflection curve up to the maximum load point.
Compound,Urine Ca^2+ [1] [mg/dL],Serum AP (serum alkaline phosphatase) [1] [U/L],Serum Ca^2+ [1] [mg/dL],Serum Pi (serum inorganic phosphate) [1] [mg/dL],Energy at maximum compared with saline-treated ovariectomized controls (FIG. 6) [2],Initial bone stiffness compared with saline-treated ovariectomized controls (FIG. 4) [2],Maximum load compared with saline-treated ovariectomized controls (FIG. 5) [2],"Serum phosphorus concentration compared with controls (FIG. 1) ([1]; oral daily for 84 days, Day 84, vs saline-treated OVX controls and sham-operated controls)"
"N[C@@H](CO)C(=O)NCC(=O)N[C@@H](CO)C(=O)NCC(=O)N[C@@H](CO)C(=O)NCC(=O)N[C@@H](CO)C(=O)NCC(=O)N[C@@H](CO)C(=O)NCC(=O)N[C@@H](CO)C(=O)NCC(=O)N[C@@H](CO)C(=O)NCC(=O)O [(Ser-Gly)7, Ser-Gly-Ser-Gly-Ser-Gly-Ser-Gly-Ser-Gly-Ser-Gly-Ser-Gly] (H-SGSGSGSGSGSGSG-OH)",26.7 ± 22.9,134 ± 53,10.8 ± 0.6,8.8 ± 1.0,,,,
"N[C@@H](COP(=O)(O)O)C(=O)NCC(=O)N[C@@H](COP(=O)(O)O)C(=O)NCC(=O)N[C@@H](COP(=O)(O)O)C(=O)NCC(=O)N[C@@H](COP(=O)(O)O)C(=O)NCC(=O)N[C@@H](COP(=O)(O)O)C(=O)NCC(=O)N[C@@H](COP(=O)(O)O)C(=O)NCC(=O)N[C@@H](COP(=O)(O)O)C(=O)NCC(=O)O [(Pse-Gly)7, Pse-Gly-Pse-Gly-Pse-Gly-Pse-Gly-Pse-Gly-Pse-Gly-Pse-Gly] (H-[pS]G[pS]G[pS]G[pS]G[pS]G[pS]G[pS]G-OH)",,,11.0 ± 0.5,,,,,
"Ser-Gly-Ser-Gly-Pse-Gly-Pse-Gly-Pse-Gly-Pse-Gly-Pse-Gly (SGSG[pS]G[pS]G[pS]G[pS]G[pS]G) [(Ser-Gly)2(Pse-Gly)5, Linear peptide, Pse = O-phosphoserine]",29.5 ± 20.0,121 ± 30,,9.2 ± 1.3,statistically significant increase,statistically significant increase,statistically significant increase,
"Ser-Gly-Ser-Gly-Ser-Gly-Ser-Gly-Ser-Gly-Pse-Gly-Pse-Gly (SGSGSGSGSG[pS]G[pS]G) [(Ser-Gly)5(Pse-Gly)2, Linear peptide, Pse = O-phosphoserine]",26.6 ± 14.1,118 ± 18,,7.9 ± 0.9,statistically significant increase,statistically significant increase,statistically significant increase,equivalent to or even lower than sham-operated controls
